Reference: a melting point compilation (Tetko et al.; mined from patent text by program, amines drawn as free bases though some values may be those of a salt)

Compound	melting point [°C]
Cc1ccc(S(=O)(=O)n2ccc3c(Cl)ncnc32)cc1	143
COc1cc(N)c(C(=O)c2ccnc(Cl)c2)cc1OC	132 to 134
Cc1nc2c(N)nc3ccccc3c2n1CCC1(O)CCCCC1	> 252
O=C(O)c1cccc2sc3ccccc3c(=O)c12	269 to 270
CCc1c[nH]c(=O)c(N)c1Sc1cc(C)cc(C)c1	208 to 209
CC(=O)c1csc(C(=O)C2C(=O)N(C(N)=O)c3ccc(Cl)cc32)c1 (configuration not stated)	230 to 233
CCOc1cccc2c1C(=NNc1ccc(S(N)(=O)=O)cc1)C(=O)N2	> 250
CC(=O)C(=Cc1cc(Cl)c(S(C)(=O)=O)c(Cl)c1)C(C)=O	134 to 136
CCC(C)(C)NCC(O)c1ccc(N)c(C#N)c1 (configuration not stated)	143
OCCSc1cccc2nccn12	99 to 100
NC(=O)C(N)CC(=O)N[C@@H]1CN2C(=O)N(c3cc(Cl)nc(Cl)c3)C(=O)[C@@]2(Cc2ccc(OC(F)(F)F)cc2)C1 (some centres not stated)	108
CC1CN(c2c(Cl)nc3ccc(F)cc3c2C(N)=O)CC(C)N1 (configuration not stated)	169 to 170
O=C(c1ccccc1O)N1CC2CCC(C1)O2	155 to 157
CC(C)c1nccn1-c1nc(Cl)nc2nc[nH]c12	268
COc1cccc(OC)c1-c1ccc(CC[C@H](NC(=O)c2c(Cl)cccc2Cl)C(=O)O)cc1	105 to 107
CC(=O)Nc1c(C)c(C)c2c(c1C)CC(C)(C)O2	190
Cc1nnc(SCc2ccc(C(=O)N(C)C)cc2)s1	75 to 80
COc1cc(C(=O)O)c(O)c2c1C(C)(C)CCC2(C)C	213
COc1cc2c(cc1-c1ccc(F)cc1)C(=CNc1ccc(CN3CCCCC3)cc1)C(=O)NC2=O	227 to 230
CCC(CC)N(Cc1ccc(C#N)cc1F)S(=O)(=O)c1ccc(F)cc1	102 to 104
O=C(CCNc1c(C(=O)O)[nH]c2cc(Cl)ccc12)c1ccc(F)cc1	248 to 250
CC1(C)C(C(=O)O)C12C=CC=C2 (configuration not stated)	126 to 129

More lines, now with the values ahead:

melting point [°C]	Compound
163 to 164	Cc1ccccc1C(NCC(=O)Nc1c(C(C)C)cccc1C(C)C)c1ccccc1 (configuration not stated)
40 to 42	CCCCCCCCCCCCCCCC(=O)OCC(COCc1ccccc1)OC(=O)CCCCCCCCCCCCCCC (configuration not stated)
75 to 76	C=CCNC(=O)N1CC(Oc2cccc(C(F)(F)F)c2)C1
208 to 210	Cc1cnc2c(C#N)c(C)nn2c1-c1ccccc1
52 to 54	CNC(=O)CNc1c(C)cccc1C
196 to 201	COc1cc(NC(=O)C#Cc2ccc(C(F)(F)F)cc2Cl)ccc1OCCN1CC(C)CC(C)C1 (configuration not stated)
57 to 59	CCOC(=O)C(C(=O)OCC)c1cccc2ccccc12
86 to 87	CC(=O)N(O)C(C)/C=C/c1cccc(Oc2ccc(Cl)cc2)c1 (configuration not stated)
180 to 181	O=C1C(=Cc2ccc(-c3cccs3)s2)CCc2cc(OCCn3ccnc3)ccc21
80 to 82	CC(C)(C)Oc1ccc(C[C@H](NC(=O)OCc2ccccc2)C(=O)C=[N+]=[N-])cc1
153 to 154	COC(=O)c1cccc2c(C=O)c[nH]c12
95 to 96	O=C1NCC2(CCNCC2)O1
194 to 196	CC(=O)NC[C@H]1CN(c2ccc(N3CCC(=C(C#N)n4cncn4)CC3)c(F)c2)C(=O)O1
> 300	Oc1ccc(-c2nc3ccc(O)cc3o2)cc1
267 to 269	OC1(c2ccc(Cl)c(Cl)c2)c2ccccc2C2=NCCCN21 (configuration not stated)
160 to 162	CCNc1nc(-c2ccc(NC(=O)NCc3cccnc3)cc2)ccc1C(=O)NCCN(C(C)C)C(C)C
126	Oc1ccccc1C=NCCN=Cc1ccccc1O
261 to 262	Cc1ccc(-c2csc(-c3ccc(C(=O)O)cc3)n2)cc1C
74 to 76	CCCC(=NO)c1ccc(OCOC)cc1
> 280	O=C(O)c1ccc2nc(-n3nc4c(c3O)-c3ccccc3CC4)sc2c1
